What all share (experiment): radioligand competition binding
(Displacement assays read how much labelled ligand stays bound in the presence of the test substance.)

One experiment concerns the target T1, 5-HT1A (Homo sapiens, UniProt P08908).
T1 sequence (P08908 1-422): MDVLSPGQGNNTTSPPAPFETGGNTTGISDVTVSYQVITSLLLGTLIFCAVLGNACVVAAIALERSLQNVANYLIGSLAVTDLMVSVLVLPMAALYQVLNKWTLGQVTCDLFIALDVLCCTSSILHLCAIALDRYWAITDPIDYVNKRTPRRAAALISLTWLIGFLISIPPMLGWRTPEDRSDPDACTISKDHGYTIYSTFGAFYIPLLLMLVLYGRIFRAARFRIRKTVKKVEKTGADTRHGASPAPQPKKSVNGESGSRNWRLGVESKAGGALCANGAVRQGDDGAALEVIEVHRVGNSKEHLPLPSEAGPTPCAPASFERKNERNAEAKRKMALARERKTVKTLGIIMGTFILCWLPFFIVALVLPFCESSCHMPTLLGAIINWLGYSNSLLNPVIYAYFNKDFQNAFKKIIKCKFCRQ

For a further experiment, the target named is 5-HT2B (Homo sapiens, UniProt P41595).
Sequence of 5-HT2B (P41595 whole entry): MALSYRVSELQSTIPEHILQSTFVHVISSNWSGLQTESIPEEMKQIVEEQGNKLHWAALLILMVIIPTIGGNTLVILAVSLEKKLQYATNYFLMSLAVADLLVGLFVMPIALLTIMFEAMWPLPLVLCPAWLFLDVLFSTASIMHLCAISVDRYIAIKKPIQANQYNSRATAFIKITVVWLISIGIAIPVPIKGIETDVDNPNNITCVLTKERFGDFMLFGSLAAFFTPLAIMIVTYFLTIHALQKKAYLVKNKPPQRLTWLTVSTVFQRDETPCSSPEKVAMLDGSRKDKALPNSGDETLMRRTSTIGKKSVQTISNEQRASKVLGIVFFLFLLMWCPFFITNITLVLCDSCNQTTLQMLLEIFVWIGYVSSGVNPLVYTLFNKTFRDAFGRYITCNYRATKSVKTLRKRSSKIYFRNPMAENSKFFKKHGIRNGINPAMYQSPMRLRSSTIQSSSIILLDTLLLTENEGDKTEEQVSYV
The target in a further experiment is S2R.

Structures can show the parent of a compound that is named as a salt. Where two headings read alike, the source gives them in different places. Bounds are passed on as bounds.

`CC(C)n1c(=O)c(C(=O)NCCCN2CCCCC2)c(O)c2ccsc21` [PRX-3140, 6,7-Dihydro-4-hydroxy-7-isopropyl-6-oxo-N-(3-(piperidin-1-yl)propyl)thieno[2,3-b]pyridine-5-carboxamide potassium salt]: the inhibition constant Ki (as a rule, the dissociation constant of the complex between target and ligand, obtained from inhibition or displacement) at 5-HT1A was over 5000 nM; on 5-HT2B it was over 5000 nM; on S2R (text b35 prints a range that differs from the table), 36.1 nM.
Consider `N#Cc1cc(CN2CCC(Nc3ncnc4sc(Cl)cc34)CC2)ccc1F` [NP-18-3, 5-((4-(6-chlorothieno[2,3-d]pyrimidin-4-ylamino)piperidine-1-yl)methyl)-2-fluorobenzonitrile monofumarate], for which the Ki on 5-HT2B is 3.4 nM; at S2R, 42 nM.
As to `CC(=O)Nc1cccc(N2CCN(CCCCNS(=O)(=O)CC3CCCCC3)CC2)c1` [NP-18-2, N-{3-[4-(4-cyclohexylmethanesulfonylaminobutyl)-piperazin-1-yl]phenyl} acetamide hydrochloride], the Ki on 5-HT1A (text b38 prints a wider range than the table) is 5 to 11 nM; on 5-HT2B it was over 5000 nM; on S2R it was over 2000 nM.

The record behind these values is article doi:10.1101/2024.12.04.24318244v2 (medrxiv, 2024).
